# Source: paper PMC10236072, “Microwave-assisted synthesis of [^52Mn]Mn-porphyrins: Applications in cell and liposome radiolabelling” (Nuclear Medicine and Biology, 2022)
# Where two headings read alike, the source gives them in different places.
# How the values were obtained:
# [1] = parameters: method as in PMID 3821476; conditions: up to 9 days, UV-spectroscopy; cited from earlier work
# [2] = test system: various cell lines; conditions: cited from earlier work
# [3] = Log P (1-octanol/water partition, gamma counting); assay type: physicochemical; conditions: 1-octanol/H2O, mean ± SD, n = 3 (free 52Mn n = 2)
# Protocol: An aliquot (500 μL) of each layer was then added to an Eppendorf. An aliquot (20 μL) of the [^52Mn]Mn-porphyrin reaction mixture was then added to the two layers and vortexed for 5 min. After mixing, the suspension was […] briefly for 10 s to settle the layers, and 200 μL of each layer was extracted. The octanol and H2O layers were then gamma counted (Wallac CompuGamma) and the Log P was calculated as below: LogP=LogActivityCPMin octanol layer/ActivityCPMinwaterlayer
# [4] = Solubility in aqueous and organic solvents; assay type: physicochemical
smiles,measurement,setting,value
O=S(=O)([O-])c1ccc(-c2c3nc(c(-c4ccc(S(=O)(=O)[O-])cc4)c4ccc([n-]4)c(-c4ccc(S(=O)(=O)[O-])cc4)c4ccc([n-]4)c(-c4ccc(S(=O)(=O)[O-])cc4)c4nc2C=C4)C=C3)cc1.[Mn+3] [Mn-(5)],stability in human plasma,[1],stable
[89Zr+4].[O-]c1cccc2cccnc12.[O-]c1cccc2cccnc12.[O-]c1cccc2cccnc12.[O-]c1cccc2cccnc12 [[^89Zr]Zr-oxine],cellular retention,[2]; later timepoints (5–7 days),at least 30%
same,cellular retention,"[2]; various cell lines, after 24 h",> 65%
"[Cl][52Mn][Cl] [Buffered ^52Mn, [^52Mn]MnCl2]",Log P value,[3],−2.4 ± 0.7
CNS(=O)(=O)c1ccc(F)c(-c2c3nc(c(-c4c(F)ccc(S(=O)(=O)NC)c4F)c4ccc([nH]4)c(-c4c(F)ccc(S(=O)(=O)NC)c4F)c4nc(c(-c5c(F)ccc(S(=O)(=O)NC)c5F)c5ccc2[nH]5)C=C4)C=C3)c1F [porphyrin 2],solubility,[4],favourable solubility in aqueous and organic solvents
same,solubility,[4]; listed as Porphyrin 2,favourable solubility in both aqueous and organic solvents
